In patent US20220089575A1, “FARNESOID X RECEPTOR AGONISTS AND USES THEREOF” (Metacrine, Inc., priority 2017, published 2022):

target: T1, hFXR (Homo sapiens, UniProt Q96RI1); assay: In Vitro FXR Assay (TK): TK-ECRE-luc reporter in transfected CV-1 cells; type: cell-based; conditions: 18 hrs, luminescence, maximum efficacy of <25% of the Fexarmine control classified as '+'
T1 construct: expressed in transfected cells; host or cells: CV-1 cells
T1 sequence (Q96RI1 1-486): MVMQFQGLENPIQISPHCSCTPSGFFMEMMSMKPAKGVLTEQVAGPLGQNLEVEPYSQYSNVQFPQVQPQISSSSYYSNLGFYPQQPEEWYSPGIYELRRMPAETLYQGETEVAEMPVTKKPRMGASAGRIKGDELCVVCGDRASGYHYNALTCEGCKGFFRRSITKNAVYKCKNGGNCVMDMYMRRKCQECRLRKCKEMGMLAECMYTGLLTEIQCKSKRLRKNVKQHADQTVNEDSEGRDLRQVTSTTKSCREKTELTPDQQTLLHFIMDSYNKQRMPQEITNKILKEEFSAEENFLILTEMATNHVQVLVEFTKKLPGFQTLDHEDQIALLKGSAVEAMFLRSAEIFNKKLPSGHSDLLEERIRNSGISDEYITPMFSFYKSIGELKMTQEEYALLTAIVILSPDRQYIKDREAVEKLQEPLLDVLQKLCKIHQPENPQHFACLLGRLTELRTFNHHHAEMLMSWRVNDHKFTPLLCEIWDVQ
T1 sequence (P19793 1-462 partner): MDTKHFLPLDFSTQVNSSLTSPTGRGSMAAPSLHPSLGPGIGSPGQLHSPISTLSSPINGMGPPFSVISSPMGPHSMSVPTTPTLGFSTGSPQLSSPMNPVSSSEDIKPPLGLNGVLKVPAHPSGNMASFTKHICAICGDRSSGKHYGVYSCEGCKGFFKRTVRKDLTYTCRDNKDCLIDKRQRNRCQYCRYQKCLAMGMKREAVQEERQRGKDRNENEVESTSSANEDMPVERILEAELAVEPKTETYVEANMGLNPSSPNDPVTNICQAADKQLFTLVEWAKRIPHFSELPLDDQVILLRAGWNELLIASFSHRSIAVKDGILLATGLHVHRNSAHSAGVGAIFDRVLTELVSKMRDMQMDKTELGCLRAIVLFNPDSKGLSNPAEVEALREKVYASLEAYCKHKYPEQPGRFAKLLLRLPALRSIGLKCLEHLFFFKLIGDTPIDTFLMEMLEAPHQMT
How it was run: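 Reporter transactivation by hFXR was measured in CV-1 cells carrying hRXR and a TK-ECRE-luc construct, with compound treatment for 18 h before lysis and luminescence detection.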

EC50 [nM]	SMILES
≤ 250	COc1ccc([C@H]2CC[C@H](CN(c3cccc(-c4cnc(C5CC5)s4)c3)C(=O)[C@H]3CC[C@H](NC(=O)CN(C)C)CC3)CC2)cc1C [Compound 31.06, trans-N-(3-(2-Cyclopropylthiazol-5-yl)phenyl)-4-(2-(dimethylamino)acetamido)-N-((trans-4-(4-methoxy-3-methylphenyl)cyclohexyl)methyl)cyclohexanecarboxamide]
≤ 250	CNC(=O)N[C@H]1CC[C@H](C(=O)N(C[C@H]2CC[C@H](c3ccc(OC)c(C)c3)CC2)c2cccc(-c3cnn(C4CC4)c3)c2)CC1 [Compound 26.37, trans-N-(3-(1-Cyclopropyl-1H-pyrazol-4-yl)phenyl)-N-((trans-4-(4-methoxy-3-methylphenyl)cyclohexyl)methyl)-4-(3-methylureido)cyclohexanecarboxamide]
≤ 250	COc1ccc([C@H]2CC[C@H](CN(c3cc(-c4coc(C5CC5)n4)ccn3)C(=O)[C@H]3CC[C@H](OC(=O)N4CC(O)C4)CC3)CC2)nc1C [Compound 7, trans-4-((4-(2-Cyclopropyloxazol-4-yl)pyridine-2-yl)((trans-4-(5-methoxy-6-methylpyridin-2-yl)cyclohexyl)methyl)carbamoyl)cyclohexyl 3-hydroxyazetidine-1-carboxylate]
≤ 250	COc1ccc([C@H]2CC[C@H](CN(c3cc(-c4coc(C5CC5)n4)ccn3)C(=O)[C@H]3CC[C@H](OC(=O)N4CC(O)C4)CC3)CC2)cc1C [Compound 7.67, trans-4-((4-(2-Cyclopropyloxazol-4-yl)pyridine-2-yl)((trans-4-(4-methoxy-3-methylphenyl)cyclohexyl)methyl)carbamoyl)cyclohexyl 3-hydroxyazetidine-1-carboxylate]
≤ 250	COC(=O)CC1CN(C(=O)O[C@H]2CC[C@H](C(=O)N(C[C@H]3CC[C@H](c4ccc(OC)c(C)c4)CC3)c3cccc(-c4cnn(C5CC5)c4)c3)CC2)C1 [Compound 7.41, trans-4-((3-(1-Cyclopropyl-1H-pyrazol-4-yl)phenyl)((trans-4-(4-methoxy-3-methylphenyl)cyclohexyl)methyl)carbamoyl)cyclohexyl 3-(2-methoxy-2-oxoethyl)azetidine-1-carboxylate]
≤ 250	CNC(=O)O[C@H]1CC[C@H](C(=O)N(C[C@H]2CC[C@H](c3ccc(OC)c(C)n3)CC2)c2cccc(-c3cnn(C4CC4)c3)c2)CC1 [Compound 3.02, trans-4-((3-(1-Cyclopropyl-1H-pyrazol-4-yl)phenyl)((trans-4-(5-methoxy-6-methylpyridin-2-yl)cyclohexyl)methyl)carbamoyl)cyclohexyl methylcarbamate]
≤ 250	COc1ccc([C@H]2CC[C@H](CN(c3cccc(-c4cnn(C5CC5)c4)c3)C(=O)[C@H]3CC[C@H](OC(N)=O)CC3)CC2)cc1C [Compound 1.06, trans-4-((3-(1-Cyclopropyl-1H-pyrazol-4-yl)phenyl)((trans-4-(4-methoxy-3-methylphenyl)cyclohexyl)methyl)carbamoyl)cyclohexyl carbamate]
≤ 250	COC(=O)O[C@H]1CC[C@H](C(=O)N(C[C@H]2CC[C@H](c3ccc(OC)c(C)n3)CC2)c2cc(-c3coc(C4CC4)n3)ccn2)CC1 [Compound 5.49, trans-4-((4-(2-Cyclopropyloxazol-4-yl)pyridine-2-yl)((trans-4-(5-methoxy-6-methylpyridin-2-yl)cyclohexyl)methyl)carbamoyl)cyclohexyl methyl carbonate]
≤ 250	CNC(=O)O[C@H]1CC[C@H](C(=O)N(C[C@H]2CC[C@H](c3ccc(OC)c(C#N)c3)CC2)c2cccc(-c3coc(C4CC4)n3)c2)CC1 [Compound 5.35, trans-4-(((trans-4-(3-Cyano-4-methoxyphenyl)cyclohexyl)methyl)(3-(2-cyclopropyloxazol-4-yl)phenyl)carbamoyl)cyclohexyl methylcarbamate]
≤ 250	COc1ccc([C@H]2CC[C@H](CN(c3cccc(-c4cnn(C5CC5)c4)c3)C(=O)[C@H]3CC[C@H](OC(=O)NCCN(C)C(=O)OC(C)(C)C)CC3)CC2)cc1C [Compound 4.14, tert-Butyl (2-((((trans-4-((3-(1-cyclopropyl-1H-pyrazol-4-yl)phenyl)((trans-4-(4-methoxy-3-methylphenyl)cyclohexyl)methyl)carbamoyl)cyclohexyl)oxy)carbonyl)amino)ethyl)(methyl)carbamate]
≤ 250	COc1ccc(C23CCC(CN(c4cccc(-c5cnn(C6CC6)c5)c4)C(=O)[C@H]4CC[C@H](NC(=O)CO)CC4)(CC2)CC3)cc1C [Compound 26.09, trans-N-(3-(1-Cyclopropyl-1H-pyrazol-4-yl)phenyl)-4-(2-hydroxyacetamido)-N-((4-(4-methoxy-3-methylphenyl)bicyclo[2.2.2]octan-1-yl)methyl)cyclohexanecarboxamide]
≤ 250	COc1ccc([C@H]2CC[C@H](CN(c3cc(-c4coc(C5CC5)n4)ccn3)C(=O)[C@H]3CC[C@H](OC(=O)NC(C)C(C)O)CC3)CC2)nc1C (stereo partly drawn) [Compound 6.73, trans-4-((4-(2-Cyclopropyloxazol-4-yl)pyridin-2-yl)((trans-4-(5-methoxy-6-methylpyridin-2-yl)cyclohexyl)methyl)carbamoyl)cyclohexyl (3-hydroxybutan-2-yl)carbamate]
≤ 250	COc1ccc([C@H]2CC[C@H](CN(c3cccc(-c4cnc(C5CC5)s4)c3)C(=O)[C@H]3CC[C@H](NC(=O)CO)CC3)CC2)cc1C [Compound 25.14, trans-N-(3-(2-Cyclopropylthiazol-5-yl)phenyl)-4-(2-hydroxyacetamido)-N-((trans-4-(4-methoxy-3-methylphenyl)cyclohexyl)methyl) cyclohexanecarboxamide]
≤ 250	COc1ccc([C@H]2CC[C@H](CN(c3cccc(-c4cnn(C5CC5)c4)c3)C(=O)[C@H]3CC[C@H](OC(=O)N4CC(CC(=O)O)C4)CC3)CC2)cc1C [Compound 7.42, 2-(1-(((trans-4-((3-(1-Cyclopropyl-1H-pyrazol-4-yl)phenyl)((trans-4-(4-methoxy-3-methylphenyl)cyclohexyl)methyl)carbamoyl)cyclohexyl)oxy)carbonyl)azetidin-3-yl)acetic acid]
≤ 250	COc1ccc([C@H]2CC[C@H](CN(c3cccc(-c4cnn(C5CC5)c4)c3)C(=O)[C@H]3CC[C@H](OC(=O)N4CC(C(=O)O)C4)CC3)CC2)cc1C [Compound 7.35, 1-(((trans-4-((3-(1-Cyclopropyl-1H-pyrazol-4-yl)phenyl)((trans-4-(4-methoxy-3-methylphenyl)cyclohexyl)methyl)carbamoyl)cyclohexyl)oxy)carbonyl)azetidine-3-carboxylic acid]

SMILES	EC50 [nM]
COc1ccc([C@H]2CC[C@H](CN(c3cccc(-c4cnn(C5CC5)c4)c3)C(=O)[C@H]3CC[C@H](OC(=O)N4CC(NC(=O)OC(C)(C)C)C4)CC3)CC2)cc1C [Compound 7.38, trans-4-((3-(1-Cyclopropyl-1H-pyrazol-4-yl)phenyl)((trans-4-(4-methoxy-3-methylphenyl)cyclohexyl)methyl)carbamoyl)cyclohexyl 3-((tert-butoxycarbonyl)amino)azetidine-1-carboxylate]	≤ 250
